The values below come from PubChem BioAssay (NCI).

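Dose response: 5 concentrations. Exposure: 48 h. Format: 96-well plates. Endpoint: linear interpolation; highest concentration if not reached. TGI denotes the concentration required for complete inhibition of growth.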

Common to all, as to experiment: growth of human tumour cells (NCI), 48 h
The test system of assay [1] is HOP-62 NSCLC.
Assay [2] has as its system DU-145 prostate.
In assay [3] the test system is SF-539 CNS.
The test system of assay [4] is T-47D breast.
The subject of assay [5] is COLO 205 colon.
Assay [6] concerns TK-10 renal.
Assay [7] has as its system SW-620 colon.
In assay [8] the test system is U251 CNS.
Assay [9] relates to SNB-75 CNS.
In assay [10] the test system is NCI-H23 lung.

Take `COc1cc(C2c3cc4c(cc3OC(N3CCOCC3)C2C)OCO4)cc(OC)c1OC(C)=O` (centres undefined): the TGI in assay [1] is more than 95.5 µM; in assay [2], more than 92.5 µM; in assay [3], 40.2 µM; in assay [4], more than 81.8 µM; in assay [5], 52 µM; in assay [6], more than 100 µM. The TGI in assay [7] was more than 100 µM; in assay [8], more than 80.9 µM; in assay [9] it was 25.2 µM; in [10], more than 95.2 µM.

Regarding `CC(C)(C)OC(=O)N1C/C=C\C(=O)C2(OCCO2)c2ccccc21`, the TGI in assay [1] was more than 100 µM; in assay [2], 81.8 µM; in assay [3] it was 50.3 µM; in [4] it was 49.5 µM; in [5], 35.7 µM; in [6] it was 47.3 µM. In addition, the TGI in assay [7] was 58.7 µM; in [8] it was more than 100 µM; in assay [9], 99.2 µM; in assay [10], more than 100 µM.

Take `CCOC(=O)/C=C(/C(=O)OCC)n1ccc(=O)[nH]c1=O`: the TGI came out at 35.7 µM in [1]; 29 µM in assay [2]; 34.8 µM in [3]; 16.6 µM in assay [4]; 3.99 µM in assay [5]; 10.5 µM in assay [6]. The TGI is 3.99 µM in assay [7], 27.3 µM in assay [8], 29.2 µM in assay [9] and 30.4 µM in [10].

For `CCOC(=O)c1ccc(NC(NC(=O)CC)(C(F)(F)F)C(F)(F)F)cc1`, the TGI in assay [1], in [2], in [3], in assay [4], in assay [5] and in assay [6] was more than 100 µM throughout. Also, the TGI in [7], in assay [8], in assay [9] and in [10] was more than 100 µM each time.

Turning to `C1=C[C@]2(CCC13OCCO3)COc1ccccc12`, the TGI in assay [1], in assay [2], in [4], in [5], in assay [6] and in assay [7] was more than 100 µM in each case. Besides, the TGI was more than 100 µM in assay [8], more than 100 µM in [9] and 99.5 µM in assay [10].

As for `O=[N+]([O-])c1ccc(-[n+]2ccc3ccccc3c2)c([N+](=O)[O-])c1`, the TGI in [1] was 20 µM; in [2], 27.8 µM; in assay [3], 12 µM; in assay [4] it was 4.35 µM; in assay [5], 6.29 µM; in [6], 3.52 µM. For the same compound, the results for the TGI in [8], in assay [9] and in assay [10] were 17.7 µM, 8.74 µM and 6.03 µM, respectively.

Consider `CC(=O)N1C(OCc2ccccc2)CCN1c1ccccc1` (centres undefined), for which the TGI in assay [1], in assay [2], in [3], in assay [4], in assay [5] and in assay [6] was more than 10 µM each time. Further, the TGI in assay [7], in assay [9] and in assay [10] was more than 10 µM each time.

Consider `O=C1CC(Cl)c2c(Cl)sc(Cl)c21` (centres undefined), for which the TGI in [1] is 18.6 µM; in assay [2], 7.13 µM; in [3], 8.32 µM; in assay [4], more than 22 µM; in assay [5], 3.7 µM; in assay [6], 4.51 µM. The TGI in assay [7] was 3.61 µM; in assay [9] it was 22.8 µM; in assay [10], 9.32 µM.

As to `O=C(c1ccccc1)n1[nH]c(=O)n(-c2ccc(Cl)cc2)c1=O`, the TGI in assay [1], in assay [2], in [4], in [5], in [6] and in assay [7] was more than 100 µM in each case. For the same compound, the TGI in assay [8], in assay [9] and in assay [10] was more than 100 µM each time.

For `COc1cc(C2C3=C(N=C4SC(C(C)=O)=C(C)N42)c2ccccc2CC3)cc(OC)c1OC` (centres undefined), the TGI in assay [1] was more than 100 µM; in [2] it was more than 100 µM; in assay [3] it was more than 100 µM; in assay [4], 50.9 µM; in assay [5] it was more than 100 µM; in assay [7], more than 100 µM. The TGI in assay [8], in assay [9] and in assay [10] was more than 100 µM in each case.

As for `Cc1ccc(CC(=O)Nc2ccc(NC(=O)CNC(=O)/C=C/c3ccc(-c4ccccc4)cc3)cc2C(=O)c2ccccc2)cc1`, the TGI in assay [1] amounted to 6.95 µM; in [2] it was 7.54 µM; in assay [3], 8.85 µM; in [4], 3.89 µM; in assay [5] it was 32 µM; in assay [6], 5.95 µM. Further, the results for the TGI in assay [7], in assay [8] and in [10] were 19.5 µM, 8.67 µM and 4.71 µM, respectively.

Take `CCOC(=O)O/N=C1/C(c2c(O)[nH]c3ccccc23)=Nc2ccccc21`: the TGI was 33.9 µM in [1]; 13.3 µM in [2]; 25.6 µM in assay [4]; 28.8 µM in assay [5]; 24 µM in assay [6]; more than 100 µM in assay [7]. For the same compound, the values for the TGI in assay [8], in assay [9] and in assay [10] were more than 100 µM, 11.4 µM and 25.5 µM, respectively.

On to `S=C1CSc2c(cnc3ccccc23)N1`, for which the TGI in [1], in [2], in assay [4], in assay [5], in assay [6] and in [8] was more than 100 µM each time. For the same compound, the TGI in assay [9] and in [10] was more than 100 µM throughout.

Regarding `CC(CN(C)C)C(=O)/C=C/c1ccc(Cl)c(Cl)c1` (centres undefined), the TGI was 10.4 µM in [1]; more than 100 µM in assay [2]; more than 100 µM in [4]; 2.58 µM in assay [5]; 4.63 µM in assay [6]; 8.42 µM in assay [7]. Further, the TGI in [8] amounted to 2.51 µM; in assay [9], 51.1 µM; in [10], 5.11 µM.
